Conditions: acidic group

Structure (SMILES)	pKa
Oc1c(Cc2ccccc2)c(-c2ccccc2)nn1-c1ccccc1	7.6
Nc1n[nH]c(N)c1/N=N/c1ccc(C(=O)O)cc1	4.68
CCOC(=O)c1ccc(O)cc1	9.34
N#Cc1ccc(O[C@H]2O[C@@H](C(=O)O)[C@H](O)[C@@H](O)[C@@H]2O)cc1	3.22
CC(C)N(C(=S)S)C(C)C	4.3
Cn1cnc2c(O)[nH+]c(N)nc21	3.07
CC(=O)Nc1nnc(-c2ccccc2)s1	8.9
Cc1cc(O)ccc1/N=N/c1ccc2c(c1)Cc1ccccc1-2	10.3
O=CC(=O)O	1.26
O=[N+]([O-])c1ccccc1O	7.15
C[NH+](C)CCc1ccc(O)cc1	9.46
Cc1cc(C(=O)O)ccc1O	4.68
COC(=O)/C(=N/O)c1ccccc1	8.87
Cc1[nH]c2ccccc2c1CC(=O)O	4.67
[NH3+]CCC(=O)N[C@@H](Cc1c[nH]c[nH+]1)C(=O)O	2.7
c1ccc(-c2c[nH]c(-c3ccccc3)n2)cc1	12.6
O=C(O)CNC(=O)c1ccccc1O	3.63
Nc1nc[nH]n1	10.7
O=P([O-])([O-])C([NH2+]Cc1ccncc1)c1ccccc1O (stereo not drawn)	10.2
CC(P)C(=O)O (stereo not drawn)	4.15

Structure (SMILES)	pKa
[NH3+][C@H]1CC[C@H](C(=O)O)CC1	3.92
Cc1ccc(O)c(O)c1	9.62
Cc1cc(Cl)cc(Cl)c1O	7.85
C[n+]1c2ccccc2cc2cc(N)ccc21	9.8
O=C(O)c1cnccn1	2.7
COC(=O)[C@H]1[C@@H]2Cc3c4[nH]c5ccccc5c4cc[n+]3C[C@H]2CC[C@H]1O	10.7
CCN(CC)S(=O)(=O)c1ccsc1C(=O)O	2.77
Cc1cc(Cc2cc(O)ccc2C)c(O)c([N+](=O)[O-])c1	7.93
Nc1ccccc1B(O)O	9.23
N#Cc1ccccc1O	7.32
OCC[NH+](CCc1nnn[nH]1)CCc1nnn[nH]1	4.23
COCCNC(=S)S	2.85
CCOC(=O)Nc1nnc(-c2ccccc2)s1	8.2
CC(=O)Nc1ccc(S(=O)(=O)Nc2nccc(C)n2)cc1	5.46
Cc1cc(O)ccc1[N+](=O)[O-]	7.65
O=C1C=C(S(=O)(=O)[O-])/C(=N/O)c2[nH]ncc21	7.15
NC(=O)C(N)Cc1ccccc1 (stereo not drawn)	7.33
COc1cc(C(=O)O)ccc1C	4.13
C#CCO	13.3
O=P(O)(O)C([NH2+]Cc1ccc[nH+]c1)c1ccccc1O (stereo not drawn)	2.28

Structure (SMILES)	pKa
C[N+](C)(C)c1ccccc1O	7.46
CC(=O)CC(=O)Nc1ccccc1	9.94
O=Cc1ccc(O)c(O)c1	7.45
COc1ccc(C(=S)Nc2ccc(Cl)cc2)cc1	10.9
Cc1ccc(S(=O)(=O)N(CCNCC(=O)[O-])CC(=O)[O-])cc1	7.83
c1ccc(-c2nc3ccccc3[nH]2)cc1	11.9
O=[N+]([O-])C(CO)CO	9.07
O=C([O-])Cc1nnn[nH]1	5.32
CC1=C/C(=N\c2ccc(O)cc2)C(C(C)C)=CC1=O	8.85
[NH3+]CC/C=C/C(=O)O	3.83
O=C(O)Cc1nnnn1-c1ccccc1	3.1
O=C1CC[C@@H](C(=O)O)N1	3.4
Oc1onc2c1CC[NH2+]CC2	3.3
O=c1[nH]c(=O)n(-c2ccccc2)[nH]1	4.9
O=C([O-])C[NH+](CC(=O)[O-])Cc1ccccc1O	8.17
Cc1ccc(C(=O)O)cc1	4.37
S=C(Nc1ccc(Cl)c(Cl)c1)c1ccccc1	9.96
COc1ccc(C(=O)O[C@H]2O[C@@H](C(=O)O)[C@H](O)[C@@H](O)[C@@H]2O)cc1OC	3.47
O=[N+]([O-])Nc1ccccc1	4.74

Same assay, conditions: basic group

Structure (SMILES)	pKa
Nc1n[nH]c(N)c1/N=N/c1ccc(C(=O)O)cc1	3.4
CC(C)(C)NCCO	10.1
CC1C(=O)OC(C(C)(C)C)C1=O (stereo not drawn)	4.84
C[N+](C)(C)CCN	7.34
C/C(=C(\CCO)SSCCC(C)C)N(C=O)Cc1cnc(C)nc1N	5.58
Nc1ncnc2ncn([C@H]3O[C@H](CO)[C@@H](O)[C@H]3O)c12	3.9
NCCC[NH2+]CCO	8.19
c1c[nH]c(Cc2[nH]cc[nH+]2)n1	4.9
OCCc1ccccn1	5.37
c1ccc(CNc2nc[nH+]c3[nH]cnc23)cc1	-1
OC[C@@H]1O[C@H](CN2CCOCC2)[C@@H](O)[C@H](O)[C@@H]1O	6.1
O=C(/C=C1/C=CC=CN1)c1ccccc1	6.08
CNCCNCCN	10.2
Nc1nc[nH+]c(N)c1N	1.47
C[NH2+]CCCN	8.66
CCSCCN(CC)CC	9.03
CCCC1N=C(N)N=C(Nc2ccc(SC)cc2)N1 (stereo not drawn)	10.6
C[C@H](O)[C@H]1CC[C@H]2[C@@H]3CC[C@H]4C[C@H](N)CC[C@]4(C)[C@H]3CC[C@]12C	9.28
Cn1ncc2c(NCCO)ncnc21	3.86
CCC(C)C(=O)CCN1CCOCC1 (stereo not drawn)	7.07
O=C([O-])[C@@H]1O[C@H](Oc2ccc3ncccc3c2)[C@@H](O)[C@H](O)[C@H]1O	5
CCCc1cccnn1	3.59

Structure (SMILES)	pKa
Nc1nc[nH]n1	4.3
CCNc1cccc2ccccc12	4.19
N=C(N)Nc1nccc(-c2csc(N)n2)n1	9.2
Nc1ncc(Sc2ccccc2)s1	4.16
O=C(O)c1cnccn1	-0.7
COc1cccnc1C=O	3.89
Cc1ccc2ncccc2c1	5.1
CC(C)=NNC1CCN(C)CC1	8.9
Nc1ccccc1B(O)O	4.58
[O-]c1ccc(O)c2ccccc12	11
Nn1nnnc1-c1ccccc1	-0.62
CC(=O)Nc1ccc(S(=O)(=O)Nc2nccc(C)n2)cc1	0.9
Cn1nncc1Nc1ccccc1	1.73
COc1ccc(C2NCCS2)cc1 (stereo not drawn)	5.45
CCCn1cnc2ccccc21	5.46
Cn1ccc(N)n1	3.81
CCN(CC)CCCC(C)Nc1ccnc2cc(Br)ccc12 (stereo not drawn)	10.2
NCCCCN	10.6
[O-]c1[nH+]cnc2nc[nH]c12	1.99
[NH3+]CCc1ccccn1	3.93
O=[N+]([O-])c1ccc(NCO)cc1	-0.33
CNc1cnc2ccccc2n1	4.1

Structure (SMILES)	pKa
O=c1cccccc1	-0.82
Cc1nc(N)c2cnn(-c3ccccc3)c2n1	4.52
CCC(O)CN(CC)CC(C)O (stereo not drawn)	9.2
CC1([NH3+])C[C@]1(C)N (stereo partly drawn)	5.94
CC(C=C(c1cccs1)c1cccs1)N1CCCCCC1 (stereo not drawn)	7.96
CCC(C)(N)CC	10.9
c1cnc2c(c1)ccc1ncccc12	4
O=c1[nH]c(=O)n(-c2ccccc2)[nH]1	-4.1
C#CC(C)(C)Nc1ccccc1	4.26
c1ccc2c(c1)CCC2N(c1ccc2ccccc2c1)C1CCc2ccccc21 (stereo not drawn)	0.25
C1CCC(NC2CCCCO2)OC1 (stereo not drawn)	8.1
NC(=O)CCCCc1ccccn1	5.73
CCc1ccc(/N=N/c2ccc(N(C)C)cc2)cc1C	2.6
Cc1cccc(C(=O)[O-])n1	5.8
Nc1ccnc(N)n1	7.26
[S-]c1ncccn1	7.2
Nc1cncn1[C@H]1O[C@@H](CO)[C@H](O)[C@@H]1O	6.05
CN1C[C@@H](C(=O)[O-])C=C2c3cccc4[nH]cc(c34)C[C@@H]21	7.85
C=CC(=O)NC(C)(C)CCN(C)C	9.39
c1ccc(N2CCCC2)cc1	4.3
